Experimental data published in ChEMBL document CHEMBL1201862, “PubChem BioAssay data set” (2004).
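Step 1: Grow cells in 96-well plates. Step 2: Expose to compound for 48 hours at 5 concentrations. Step 3: Interpolate endpoints linearly; if unreached, use highest concentration. GI50 marks 50% less growth.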 The source made the active and inactive calls. No stated cut-off is given here; in the data, active = GI50 up to about 1.1 µM and inactive = higher.

What was measured:
Test in all cases: NCI tumour cell line growth inhibition, 48 h
M14 = system: M14
KM12 = system: KM12
HOP-92 = system: HOP-92
HL-60 = system: HL-60
NCI-H522 = system: NCI-H522
SF-268 = system: SF-268
Malme-3M = system: Malme-3M
SK-MEL-28 = system: SK-MEL-28
HCT-15 = system: HCT-15
SR = system: SR
SK-OV-3 = system: SK-OV-3
RXF 393 = system: RXF 393
TK-10 = system: TK-10
CAKI-1 = system: CAKI-1
SNB-75 = system: SNB-75
HCC 2998 = system: HCC 2998
SNB-19 = system: SNB-19

Cn1cnc(CCc2ccccc2)n1
GI50 (M14): > 100 µM (inactive) | GI50 (KM12): > 100 µM (inactive) | GI50 (HOP-92): > 100 µM (inactive) | GI50 (HL-60): > 100 µM (inactive) | GI50 (NCI-H522): > 100 µM (inactive) | GI50 (SF-268): > 100 µM (inactive) | GI50 (Malme-3M): > 100 µM (inactive) | GI50 (SK-MEL-28): > 100 µM (inactive) | GI50 (HCT-15): > 100 µM | GI50 (SR): > 100 µM (inactive) | GI50 (SK-OV-3): > 100 µM (inactive) | GI50 (RXF 393): > 100 µM (inactive) | GI50 (TK-10): > 100 µM (inactive) | GI50 (CAKI-1): > 100 µM (inactive) | GI50 (SNB-75): > 100 µM (inactive)

CO[C@@]1(c2ccccc2)O[C@H]2OCCC2[C@H]1c1ccc(Cl)cc1 (stereo partly specified)
GI50 (M14): 37.6 µM (inactive) | GI50 (KM12): 47 µM (inactive) | GI50 (NCI-H522): 16.4 µM (inactive) | GI50 (SF-268): 56.9 µM (inactive) | GI50 (Malme-3M): 28.5 µM (inactive) | GI50 (SK-MEL-28): 63.8 µM (inactive) | GI50 (HCT-15): 36.1 µM | GI50 (SR): 29 µM (inactive) | GI50 (HCC 2998): 35.3 µM (inactive) | GI50 (RXF 393): 17.7 µM (inactive) | GI50 (TK-10): 40.8 µM (inactive) | GI50 (CAKI-1): 28.8 µM (inactive) | GI50 (SNB-19): 40.1 µM (inactive) | GI50 (SNB-75): 28.8 µM (inactive)

O=C(NCCCCCCNC(=O)NC1OCC(O)C(O)C1O)NC1OCC(O)C(O)C1O (stereo unspecified)
GI50 (M14): > 100 µM (inactive) | GI50 (KM12): > 100 µM (inactive) | GI50 (HOP-92): > 100 µM (inactive) | GI50 (HL-60): > 100 µM (inactive) | GI50 (NCI-H522): > 100 µM (inactive) | GI50 (SF-268): > 100 µM (inactive) | GI50 (Malme-3M): > 100 µM (inactive) | GI50 (SK-MEL-28): > 100 µM (inactive) | GI50 (HCT-15): > 100 µM | GI50 (SR): > 100 µM (inactive) | GI50 (SK-OV-3): > 100 µM (inactive) | GI50 (RXF 393): > 100 µM (inactive) | GI50 (TK-10): > 100 µM (inactive) | GI50 (CAKI-1): > 100 µM (inactive) | GI50 (SNB-19): < 0.01 µM (active) | GI50 (SNB-75): 64.9 µM (inactive)

Cc1cc(N(CCC#N)CCC#N)ccc1/C=C\C(=O)Nc1ccccc1
GI50 (M14): 2.9 µM (inactive) | GI50 (KM12): 97.5 µM (inactive) | GI50 (HOP-92): > 100 µM (inactive) | GI50 (HL-60): 26 µM (inactive) | GI50 (NCI-H522): > 100 µM (inactive) | GI50 (SF-268): 97.1 µM (inactive) | GI50 (Malme-3M): > 100 µM (inactive) | GI50 (SK-MEL-28): > 100 µM (inactive) | GI50 (HCT-15): 0.887 µM | GI50 (HCC 2998): 13.6 µM (inactive) | GI50 (SK-OV-3): > 100 µM (inactive) | GI50 (TK-10): > 100 µM (inactive) | GI50 (CAKI-1): > 100 µM (inactive) | GI50 (SNB-19): > 100 µM (inactive) | GI50 (SNB-75): > 100 µM (inactive)

C/C(CN1C(=O)c2ccccc2C1=O)=N\NS(=O)(=O)c1cccc(C(=O)O)c1
GI50 (M14): > 100 µM (inactive) | GI50 (KM12): > 100 µM (inactive) | GI50 (HL-60): > 100 µM (inactive) | GI50 (NCI-H522): > 100 µM (inactive) | GI50 (SF-268): > 100 µM (inactive) | GI50 (Malme-3M): > 100 µM (inactive) | GI50 (SK-MEL-28): > 100 µM (inactive) | GI50 (HCT-15): > 100 µM | GI50 (SR): > 100 µM (inactive) | GI50 (HCC 2998): > 100 µM (inactive) | GI50 (SK-OV-3): > 100 µM (inactive) | GI50 (TK-10): > 100 µM (inactive) | GI50 (CAKI-1): > 100 µM (inactive) | GI50 (SNB-19): > 100 µM (inactive) | GI50 (SNB-75): > 100 µM (inactive)

CCOC(=O)C1=C(C)Nc2ccccc2S1
GI50 (M14): > 100 µM (inactive) | GI50 (KM12): > 100 µM (inactive) | GI50 (HOP-92): 44 µM (inactive) | GI50 (NCI-H522): > 100 µM (inactive) | GI50 (SF-268): > 100 µM (inactive) | GI50 (Malme-3M): > 100 µM (inactive) | GI50 (SK-MEL-28): > 100 µM (inactive) | GI50 (HCT-15): > 100 µM | GI50 (SR): > 100 µM (inactive) | GI50 (HCC 2998): > 100 µM (inactive) | GI50 (SK-OV-3): > 100 µM (inactive) | GI50 (RXF 393): 51.9 µM (inactive) | GI50 (TK-10): > 100 µM (inactive) | GI50 (CAKI-1): > 100 µM (inactive) | GI50 (SNB-19): > 100 µM (inactive) | GI50 (SNB-75): > 100 µM (inactive)

O=C(CC1S/C(=N\c2ccccc2Cl)NC1=O)Nc1ccc(Cl)cc1 (stereo unspecified)
GI50 (M14): > 100 µM (inactive) | GI50 (KM12): > 100 µM (inactive) | GI50 (HL-60): 94.4 µM (inactive) | GI50 (SF-268): > 100 µM (inactive) | GI50 (Malme-3M): > 100 µM (inactive) | GI50 (SK-MEL-28): > 100 µM (inactive) | GI50 (HCT-15): 16.3 µM | GI50 (SR): 31.3 µM (inactive) | GI50 (HCC 2998): > 100 µM (inactive) | GI50 (SK-OV-3): > 100 µM (inactive) | GI50 (RXF 393): > 100 µM (inactive) | GI50 (TK-10): > 100 µM (inactive) | GI50 (CAKI-1): > 100 µM (inactive) | GI50 (SNB-19): > 100 µM (inactive)

CC(=O)NNc1nc(C)c(C(=O)NNC(=O)C(=O)Nc2c(Cl)cc([N+](=O)[O-])cc2Cl)s1
GI50 (M14): 52.1 µM (inactive) | GI50 (KM12): 40 µM (inactive) | GI50 (HOP-92): 19.5 µM (inactive) | GI50 (HL-60): 28.2 µM (inactive) | GI50 (NCI-H522): > 10 µM (inactive) | GI50 (SF-268): 29.7 µM (inactive) | GI50 (Malme-3M): 36.1 µM (inactive) | GI50 (SK-MEL-28): 26.4 µM (inactive) | GI50 (HCT-15): 40.4 µM | GI50 (SR): 30.5 µM (inactive) | GI50 (HCC 2998): 37.8 µM (inactive) | GI50 (SK-OV-3): 48.5 µM (inactive) | GI50 (TK-10): 41.4 µM (inactive) | GI50 (SNB-19): 43.8 µM (inactive)

CC1(OCc2ccccc2)C(=O)N2C1NCC2(C)C (stereo unspecified)
GI50 (M14): > 100 µM (inactive) | GI50 (HL-60): > 100 µM (inactive) | GI50 (SF-268): > 100 µM (inactive) | GI50 (Malme-3M): > 100 µM (inactive) | GI50 (SK-MEL-28): > 100 µM (inactive) | GI50 (HCT-15): > 100 µM | GI50 (SR): > 100 µM (inactive) | GI50 (HCC 2998): > 100 µM (inactive) | GI50 (RXF 393): > 100 µM (inactive) | GI50 (TK-10): > 100 µM (inactive) | GI50 (SNB-19): > 100 µM (inactive) | GI50 (SNB-75): > 100 µM (inactive)
